From US20200030455A1, “MULTISTEP TUMOR TARGETING BY TAGGED ANTIBODY DERIVATIVES AND TAGGED DRUGS” (ISTITUTO BIOCHIMICO ITALIANO GIOVANNI LORENZINI S.P.A, priority 2017, published 2020)

How the values were obtained:
[1] = system: SK-BR-3 breast carcinoma cells; test: 3H-Thymidine incorporation (cell proliferation) assay; type: cell-based, human; settings: drug alone, without Toolbox cocktail; 5 and 50 μM; 72 h
Procedure: NAX 098 was modified by covalent addition of the polypeptide StrepTag ([…]), as also shown in (A). SK-BR-3 breast carcinoma cells were seeded in 96-well plates (quadruplicates), and cultured for 30 min in the presence of ScFv (10 μg/ml). Meanwhile, equal molar concentrations of NAX 098 and NAX […] (or RPMI 1640 medium, as a control) were pre-incubated with StrepTactMult in complete culture medium (RPMI 1640 containing 10% bovine serum) to form drug: StrepTactin complexes. The drug: StrepTactin complexes were added to separate cultures to yield a final StrpTactMult concentration of 0.75 μg/well (approximately 3.2 μg/ml), and two final drug concentrations of 5 and 50 μM, as indicated in (B). As a control, equal amounts of NAX 098 and NAX […] drugs were added to separate wells in the absence of the Toolbox cocktail. All the cells were cultured for 72 h, and ^3H-Thymidine incorporation was assessed over a 4 h radioactive pulse. Results were expressed as percent of radioactive Thymidine incorporation as compared to untreated (RPMI 1640 vehicle alone) control cells.

[2] = system: ERBB2 pathway (c-Fos promoter reporter) in BRC 230 breast carcinoma cells; test: c-Fos promoter reporter (luminescence, RLU) assay of ERBB2 signaling; type: cell-based
Excerpt: Mertansine was StrepTagged using a linker-spacer (depicted in A). The Strep-tag peptide WSHPQFEK (SEQ ID NO 2) was linked to the mertansine thiol group using the protocol disclosed in Bioconjugate Techniques, 3rd Edition Bioconjugate Techniques, 3rd Edition (2013) by Greg T. Hermanson. BRC 230 breast carcinoma cells, expressing moderate levels of ERBB2 were stably transfected with a promoter-reporter gene construct in which luciferase is placed under the control of the c-Fos promoter. […] Therefore, c-Fos activation is proportional to ERBB2 signaling, and luminescence is expected to decrease in response to the Toolbox treatment. BRC transfectants were seeded in 96-well plates (quadruplicates), and cultured for 24 h either in the presence or in the absence of the ERB-specific growth factor Neuregulin 1 (NRG-1) at a concentration of 5 nM, as indicated. During the last 30 min of this incubation ScFv (10 μg/ml) was added, where indicated. Meanwhile, equal molar concentrations of StrepTagged Mertansine (or RPMI 1640 medium, as a control) were pre-incubated with StrepTactMult in complete culture medium (RPMI 1640 containing 10% bovine serum) to form drug: StrepTactin complexes. […] All the cells were cultured for additional 72 h, and Relative Luminescence Units (RLU) were assessed in a luminometer.

| Compound | inhibition of cell proliferation (3H-Thymidine incorporation vs untreated control) [1] | activity of the ERBB2 pathway (Relative Luminescence Units) ([2]; BRC 230 transfectants, with or without NRG-1 5 nM, ScFv 10 μg/ml, drug 5 nM, 72 h) | activity of the StrepTagged drug before system-mediated dispatch ([2]; figure legend of Drawing 4) |
| --- | --- | --- | --- |
| COc1ccc2c(CCc3ccc(Cl)cc3)c3[n+](cc2c1OCCCN1C(=O)C=CC1=O)CCc1cc2c(cc1-3)OCO2 [NAX 098, 9-(3-propylmaleimide)-13-[2-(4-chlorophenyl)ethyl]berberine] | strongly inhibited cell proliferation |  |  |
| StrepTagged Mertansine: Strep-tag peptide WSHPQFEK linked to the mertansine thiol group using a linker-spacer |  | inhibited the ERBB2 pathway | inactivates the drug |
